Assays:
[1] = system: C57BL/6 mice; details: morphine 5 mg/kg s.c. alone, 120 min
Source text: A. Experimental animals. C57BL/6 mice (6-8 weeks old) of both sexes were used. Mice were housed in groups on a 12-h light-dark cycle (6:00 am light cycle; 6:00 pm dark cycle) with food (Teklad Global 16% protein rodent diets; Envigo Inc., WI, USA) and water available ad libitum. Animal groups were compiled to ensure minimization of factors (e.g., weight, sex, and health). Mice were within 20-28 g in weight at start of all studies. All tested groups contained a control group and consisted of male and female mice. Males and females were tested on the same day but at different times so that they were not in the room at the same time. All the experiments were tested during the light cycle between 8:00 am and 3:00 pm to avoid any long-term disruption of sleep cycles. Mice were transferred to the behavioural testing room at least 45 min before the first test to acclimatize. Following behavioural evaluation, animals were killed by CO2 inhalation, followed by cervical dislocation and postmortem decapitation.
B. Drug treatments. […] The dose of YM-254890 for subcutaneous injection was taken from previous published studies. The dose of morphine selected for subcutaneous administration (2.5, 5 and 10 mg kg-1) is commonly used in mouse analgesia. For the combined administration of morphine and YM-254890 on thermal anti-nociception, YM-254890 was administered 10 min before the morphine. The latency of response was measured before injection of drugs (baseline latency response) and at different time intervals (post-treatment latency response) after drugs injection.
C. Intrathecal injections. Intrathecal (i.t.) administration was performed following the method described previously (Hylden J L et al. “Intrathecal morphine in mice: a new technique.” Eur J Pharmacol (1980) 67:313-316; Li D et al. “Direct Intrathecal Injection of Recombinant Adeno-associated Viruses in Adult Mice.” J Vis Exp (2019)) with slight modifications. All intrathecal injections were performed using a 25 μL Hamilton syringe with a 30-gauge needle. The injection volume was 5 μL for each mouse. […] Each solution was injected without injection cannulae. Intrathecal injections were made into the L5-L6 intervertebral space of unanesthetized mice. The flick of the tail was considered indicative of a successful i.t. administration.

[2] = system: DRG nociceptors; assay: Whole cell patch-clamp recordings of acutely dissociated DRG nociceptors; assay type: cell-based, mouse
Protocol: F. Acutely dissociated dorsal root ganglion (DRG) Preparation. Male or female mice between 1 and 2 months of age were used for acute DRG isolations. […] Dissociated DRG cultures were prepared as previously described (Perner C et al. “Protocol for dissection and culture of murine dorsal root ganglia neurons to study neuropeptide release.” STAR Protoc (2021) 2:100333). Briefly, DRGs were dissected from 1- to 2-month-old mice in Hank's buffered salt solution (HBSS) and digested with Collagenase A and Dispase II for 25 min at 37° C., centrifuged at 200×g for 5 min, and washed with Dulbecco's modified Eagle's medium (DMEM) supplemented with 10% fetal bovine serum (FBS), glutamate, sodium pyruvate, 1% penicillin and 1% streptomycin. DRGs were then triturated in Neurobasal A medium supplemented with 10% FBS, 1% penicillin, 1% streptomycin, 1% GlutaMAX, 2% B27, […] nerve growth factor (NGF) and […] glial cell line-derived neurotrophic factor (GDNF). After plating on laminin-coated coverslips, cells were incubated at 37° C. overnight. Experiments were performed the day after dissection.
G. Whole cell patch-clamp recordings. Nociceptors were identified by physiological classification protocols (Petruska J C et al. “Subclassified acutely dissociated cells of rat DRG: histochemistry and patterns of capsaicin-, proton-, and ATP-activated currents.” J Neurophysiol (2000) 84:2365-2379) summarized in FIG. 10 and further by responsivity to morphine. Each experimental group consisted of 12-18 DRG recordings from three animals, 1-2 of which were female. Hyperpolarization-activated current (Ih) and kinetics of resulting transient currents were determined by stepping membrane potential from −60 to −110 mV for 500 ms in 10 mV increments (FIG. 10A). Outward currents were identified by first preconditioning membrane potential at −100 mV for 500 ms and then stepping from −60 to 40 mV in 20 mV increments for 200 ms (FIG. 10D). Inward current dynamics were determined by preconditioning at −80 mV and then stepping from −60 to 40 mV in 10 mV increments (FIG. 10G). A 6-s, 0- to 2-nA continuous ramp stimulation protocol was used to determine rheobase. Membrane capacitance (Cm), series resistance (Rs) and input resistance (Ri) were tested with a hyperpolarizing 10 mV pulse of 10 ms duration initially and at a 30 s interval throughout the recording period. Cells were recorded only if initial series resistance was ≤20 MΩ and excluded if Rs varied >20% while recording. Offline analysis identified clustering of a population n=30 with uniform morphine responsivity that was selected for further analysis, with basal parameters #SEM: Cm=27.31±4.72 pF, Ri=492±19.29 MQ, Ih=7.10±2.45 pA·pF−1, IA tau=8.39±0.41 ms and action potential (AP) tau=1.22±0.08 ms. K+ internal was used for all recordings, containing: 6 mM NaCl, 4 mM NaOH, 130 mM K-gluconate, 11 mM ethylene glycol-bis(β-aminoethyl ether)tetraacetic acid (EGTA), 1 mM CaCl2, 1 mM MgCl2, 10 mM N-(2-hydroxyethyl)piperazine-N′-(2-ethanesulphonic acid) (HEPES), 2 mM Na2ATP, and 0.2 mM Na2GTP 0.2, adjusted to pH 7.3-7.4 with HCl. External artificial CSF contained: 125 mM NaCl, 3 mM KCl, 1.2 mM KH2PO4, 1.2 mM MgSO4, 25 mM NaHCO3, 2 mM CaCl2), and 10 mM dextrose 10, adjusted to pH 7.3-7.4 with HCl.

In the case of `CN1CC[C@]23c4c5ccc(O)c4O[C@H]2[C@@H](O)C=C[C@H]3[C@H]1C5` [morphine], the “locomotion in open-field test” value [1] is reported as “locomotor-sensitizing effect”, the “rapidly inactivating A-type potassium currents (IA), voltage-step protocol 2” value ([2]; YM-254890 or morphine alone) is reported as “significantly inhibited IA” and the “AP amplitude, voltage-step protocol” value ([2]; bath application alone: 100 nM YM or 1 μM morphine) is reported as “moderately reduced AP amplitude”. For the same compound, the “excitability of DRG nociceptors (rheobase, 0-2 nA ramp stimulation)” value ([2]; bath application alone: 1 μM morphine or 100 nM YM) was “substantially decreased excitability”.

Source: patent US20250177478A1, “G ALPHA Q/11 INHIBITORS FOR USE AS AN ANALGESIC” (University of Florida Research Foundation, Incorporated, priority 2022, published 2025)
